From patent US10131679B2, “Substituted dihydropyrrolopyrazole compound” (UBE INDUSTRIES, LTD., priority 2014, dated 2018)

What was measured:
[1] = tested on: human large intestine cancer cell line (HCT-116); assay: Human large intestine cancer (HCT-116) cell growth inhibition test; assay type: cell-based; details: 72 h, HCT-116, culture for 3 days, sulforhodamine B absorbance
Summary of the method: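 HCT-116 cells seeded at 1.0×10^3 cells/well in McCoy's 5a with 10% FBS, then exposed to compound (0.1% DMSO final) for 3 days. Growth measured by sulforhodamine B absorbance; IC50 derived from concentration-inhibition data.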

[2] = tested on: IL-2 production in human peripheral blood mononuclear cell (PBMC); assay: Human PBMC CD3/CD28-induced IL-2 production inhibition test; assay type: cell-based; details: 48 h, CD3/CD28 stimulation, incubation for 2 days, ELISA
Description: Human Peripheral Blood Mononuclear Cell (PBMC) CD3/CD28-Induced IL-2 Production Inhibition Test
PBMC was separated and collected by using Ficoll-Paque (17-1440-02 manufactured by GE Healthcare Japan Corp.) from blood collected from healthy human adult in the presence of heparin. RPMI1640 medium (manufactured by GIBCO/Thermo Fisher Scientific, Inc., REF. 11875) containing 10% FBS (manufactured by GIBCO/Thermo Fisher Scientific, Inc. REF. 10082) and containing a test compound dissolved in DMSO and 2 μg/mL anti-hCD28 (manufactured by R&D Systems, Inc., Cat. No. MAB342) was added at 100 μL/well to T cell Activation Plate Anti-Human CD3 96-well plate (manufactured by Corning Inc., REF. 354725), and subsequently, a PBMC suspension adjusted such that the number of cells was 2×10^6 cells/mL was added at 100 μL/well (final DMSO concentration: 0.1%). A RPMI1640 medium containing 10% FBS and containing 0.1% DMSO and 2 μg/mL anti-hCD28 was similarly added to wells not supplemented with the test compound. After incubation for 2 days in a carbon dioxide incubator, the culture supernatant was collected. The collected culture supernatant was stored at −20° C. until IL-2 content measurement.
In the measurement of IL-2 content in the culture supernatant, a sandwich ELISA kit Quantikine Human IL-2 (manufactured by R&D Systems, Inc., Cat. No. S2050) was used. The IL-2 content of each sample was calculated from the calibration curve of Standard IL-2 included in the kit. When the amount of IL-2 produced by CD3/CD28 stimulation in the case of the addition of only DMSO was defined as 100%, the rate of inhibition of IL-2 production at each concentration of the test compound was calculated. A test compound concentration inhibiting 50% of IL-2 production was calculated as an IC50 value (nM) from the concentration of the added test compound and the rate of inhibition of IL-2 production by the test compound by using EXSUS (version 8.0.0 or version 8.0.1, manufactured by CAC Exicare Corp.).

[3] = tested on: mouse imiquimod-induced psoriasis model; assay: Ear thickening suppression test using mouse imiquimod-induced psoriasis model; assay type: in vivo; details: topical, 120 h, application of a 0.01% methanol solution for 4 days, thickness measured on day 5, BALB/c mice, read-out: rate of inhibition of increase in right auricle thickness
Summary of the method: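 Female BALB/c mice received test compound topically or orally, then 5 mg imiquimod cream (5%) on the right auricle 60 minutes later, daily for 4 days. Ear thickness was measured on day 5. Inhibition (%) of thickening was calculated relative to the solvent group, taken as 100%.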

Row | SMILES | IC50 [1] | IC50 [2] | inhibition in vivo at 0.01 % [3]
1 | CC(C)(O)C[C@@H](NC(=O)N1Cc2c(NC(=O)C3([Si](C)(C)C)CCC3)n[nH]c2C1(C)C)c1ccccc1 [IV-299, (R)—N-(3-Hydroxy-3-methyl-1-phenylbutyl)-6,6-dimethyl-3-[1-(trimethylsilyl)cyclobutanecarboxamido]-4,6-dihydropyrrolo[3,4-c]pyrazole-5(1H)-carboxamide] | ≤ 500 nM | ≤ 50 nM | ≥ 50%
2 | CC[Si](C)(C)C1(C(=O)Nc2n[nH]c3c2CN(C(=O)[C@H](OC)c2ccccc2)C3(C)C)CCC1 [IV-1178, (R)-1-(Ethyldimethylsilyl)-N-[5-(2-methoxy-2-phenylacetyl)-6,6-dimethyl-1,4,5,6-tetrahydropyrrolo[3,4-c]pyrazol-3-yl] cyclobutanecarboxamide] | ≤ 500 nM | ≤ 50 nM | ≥ 50%
3 | CC1(C)c2[nH]nc(NC(=O)C3([Si](C)(C)C)CCC3)c2CN1C(=O)[C@H](OC(F)F)c1ccccc1 [IV-1180, (R)—N-{5-[2-(Difluoromethoxy)-2-phenylacetyl]-6,6-dimethyl-1,4,5,6-tetrahydropyrrolo[3,4-c]pyrazol-3-yl}-1-(trimethylsilyl)cyclobutanecarboxamide] | ≤ 500 nM | ≤ 50 nM | ≥ 50%

Continued, in another order:

Row | IC50 [1] | SMILES | IC50 [2] | inhibition in vivo at 0.01 % [3]
4 | ≤ 500 nM | CO[C@@H](C(=O)N1Cc2c(NC(=O)C3([Si](C)(C)C)CCC3)n[nH]c2C1(C)C)c1ccccc1 [IV-1175, (R)—N-[5-(2-Methoxy-2-phenylacetyl)-6,6-dimethyl-1,4,5,6-tetrahydropyrrolo[3,4-c]pyrazol-3-yl]-1-(trimethylsilyl)cyclobutanecarboxamide] | ≤ 50 nM | ≥ 50%
5 | ≤ 500 nM | CCO[C@@H](C(=O)N1Cc2c(NC(=O)C3([Si](C)(C)C)CCC3)n[nH]c2C1(C)C)c1ccccc1 [IV-1188, (R)—N-[5-(2-Ethoxy-2-phenylacetyl)-6,6-dimethyl-1,4,5,6-tetrahydropyrrolo[3,4-c]pyrazol-3-yl]-1-(trimethylsilyl)cyclobutanecarboxamide] | ≤ 50 nM | ≥ 50%
